Laboratory results published in paper PMC5443783, “Prostaglandin E2 glyceryl ester is an endogenous agonist of the nucleotide receptor P2Y6” (Scientific Reports, 2017).
Several values for one entry are separate records, joined by “and”; a condition that tells them apart may be missing. Identical values can stand only once. Entries after “also recorded” stand apart in the source; their conditions may differ.

Columns and labels:
H1819 cells = experiment: Intracellular Ca2+ measurement in H1819 cells; type: cell-based, human
Experimental: (§1) For fluorometric measurements of intracellular Ca^2+ levels with the FlexStationII instrument (Molecular Devices), RAW264.7 and H1819 cells were seeded into 96-well plates (3.0 × 10^4 cells/well) 24 h prior to assay. Ca^2+ measurements with transiently transfected HEK293 cells were performed 48 h after transfection. Cells were loaded with 200 µl Calcium 5 reagent (Explorer Kit, Molecular Devices, USA) for 60 min at 37 °C, and the assay was performed as described. Agonists and inhibitors were solved in DMSO (100x) and diluted […] in 96-well compound plates containing HBSS. 50 µl of compound solution were added to the assay plate resulting in final concentration of 1% DMSO. Fold-response was calculated by RFUmax − RFUmin (ligand)/RFUmax − RFUmin (vehicle). EC50 values were calculated by using GraphPad Prism6 software (GraphPad, USA).

P2Y6 [1] = biological target: T1, P2Y6 (Homo sapiens, UniProt Q15077); experiment: Intracellular Ca2+ measurement in HEK293 cells transfected with P2RY6; type: cell-based; design: expressed in transfected cells; host or cells: HEK293; conditions: for effect on cytosolic Ca2+ levels: HEK293 transiently transfected with P2RY6, concentration-dependent
Experimental: RAW264.7 cells were grown in DMEM supplemented with 10% FBS, A7r5 (rat […]) cells in DMEM with 10% FBS, and A431 (human squamous carcinoma) cells in RPMI supplemented with 10% FBS. All cell lines were grown at 37 °C in a humidified 5% CO2 incubator. For functional assays, receptor constructs were heterologously expressed in human embryonic kidney (HEK293) cells upon transient or stable transfection. Cells were grown in DMEM/F12 supplemented with 10% FBS, 100 units/ml penicillin, and 100 µg/ml streptomycin. For the cAMP-inhibition assay, ERK1/2 phosphorylation assay, and Ca^2+ mobilization assay, cells were split into 96-well plates (2.0 × 10^4 cells/well) and transfected with 250 ng vector construct using MACSfectin™ (Miltenyi Biotec, Germany) according to manufacturer’s protocol. Empty vector (mock) served as the negative control. For siRNA experiments, cells were seeded in 6-well plates (4.0 × 10^5 and 6.0 × 10^5 cells/well for RAW264.7 and H1819, respectively). RAW264.7 and H1819 cells were transfected with 150 pMol of mP2RY6 siRNA and hP2RY6 siRNA (Santa Cruz Biotechnology, USA), respectively, using Viromer® Blue (Lipocalyx, Germany). As a negative control, control siRNA-A (Santa Cruz Biotechnology, USA) was used. FITC-labelled siRNA served as a transfection control.
To generate a cell line stably expressing P2Y6, HEK293 cells were seeded in 6-well plates (7.5 × 10^5 cells/well) and transfected with 3 µg vector using MACSfectin™ as transfection regent according to the manufacturer’s protocol. The pIRES-eGFP vector served as negative control. Stably transfected HEK293 cells were cultured in the presence of geneticin (500 µg/ml) for selection.
as §1

P2Y6 [2] = biological target: T1, P2Y6; experiment: ERK1/2 phosphorylation (AlphaScreen SureFire) in P2RY6-transfected HEK293 cells; type: cell-based; design: expressed in transfected cells; host or cells: HEK293; conditions: P2RY6-transfected HEK293 cells, Fig. 3b
Experimental: Cells were transferred to serum-free medium 2 h prior to assay. Ligands and controls (10 µl of 10× concentrates) were added to 90 µl medium and incubated for 5 min at 37 °C. The final concentration of DMSO was 0.2%. The reaction was stopped by aspiration of the medium and addition of 50 µl lysis buffer (PerkinElmer Life Sciences). To measure ERK1/2 phosphorylation, the AlphaScreen® SureFire ERK 1/2 assay kit (PerkinElmer Life Sciences) was used with the high sensitivity protocol. Phosphorylated ERK1/2 was measured in 384-well white OptiPlate microplates (PerkinElmer Life Sciences) with the Fusion AlphaScreen multilabel reader (PerkinElmer Life Sciences).

[3] = biological target: T2, human TSH receptor (TSHR) (Homo sapiens, UniProt P16473); experiment: Cell surface expression of TSH receptor, cell surface ELISA; type: cell-based; conditions: HEK293 transfected with HA-tagged human TSHR, Fig. 5e
T2 construct: HA tag (N); expressed in transfected cells; host or cells: HEK293
Experimental: To estimate cell surface expression of heterologously expressed receptors carrying an N-terminal HA tag, an indirect cellular ELISA was used[57]. To determine the endogenous cell surface expression of P2Y6, the same ELISA procedure was performed with minor modifications. Briefly, after 4% paraformaldehyde fixation and blocking with 10% FBS, cells were incubated with the primary anti-P2Y6 antibody (sc-15215; Santa Cruz Biotechnology, USA) in 1:1,000 dilution for 1 h. After washing with PBS, cells were incubated with peroxidase-conjugated secondary antibody anti-goat IgG (sc-2020, Santa Cruz Biotechnology, USA) in 1:5,000 dilutions.

P2Y6 [4] = biological target: T1, P2Y6; experiment: Functional readouts at P2Y6, summary statements; type: cell-based; conditions: for EC50: summary value
P2Y6 [5] = biological target: T1, P2Y6; experiment: IP1 accumulation assay in HEK293 cells transfected with wildtype P2RY6; type: cell-based; design: expressed in transfected cells; host or cells: HEK293
Experimental: (§2) To measure intracellular IP3 the HitHunter® Inositol (1,4,5) Triphosphate Assay (DiscoveRx, USA) was used according to manufacturer′s protocol. HEK293 cells stably transfected with hP2RY6 were seeded in a 384-well Black microtiter plate (15,000 cells/well) (Greiner Bio One, Germany) and incubated with indicated concentrations of UDP and PGE2-G for 20 seconds. Reaction was stopped by adding 5 µl 0.2 N perchloric acid and measurement of IP3 was performed with the Fusion AlphaScreen multilabel reader (PerkinElmer Life Sciences) according to manufacturer′s protocol. To measure IP1, HEK293 cells expressing wildtype and mutant P2Y6 were seeded into 384-well plates (5,000 cells/well) 24 h prior assay. After aspiration of the medium, cells were incubated with indicated concentrations of agonists/antagonist for 1 h. IP1 measurements using the IP-one HTFR® assay kit (Cisbio assays, USA) were performed according to manufacturer′s protocol. The assays were performed with a final concentration of 1% DMSO.

P2Y6 Y75A = biological target: T3, P2Y6 Y75A (Homo sapiens, UniProt Q15077, Y75A); experiment: IP1 accumulation assay, mutant P2Y6 Y75A; type: cell-based; conditions: for IP1 formation at mutant receptor: Fig. 6d
T3 construct: expressed in transfected cells; host or cells: HEK293
Excerpt: cDNA from H1819 cells was used to amplify and clone the P2RY6 and CNR2 coding sequences. They were double-tagged with an N-terminal HA epitope and a C-terminal FLAG epitope and, for transient transfection, introduced into the mammalian expression vector pcDps[56]. All mutant constructs were generated by a PCR-based site-directed mutagenesis and fragment replacement strategy. For stable transfection, P2RY6 was sub-cloned into the pIRES-eGFP vector (CLONTECH Laboratories, USA). All constructs were verified by sequencing.
as §2

[6] = HEK293 transiently transfected with P2RY6, Fig. 2b, read-out: EC50, intracellular Ca2+

T3 sequence (Q15077 whole entry Y75A): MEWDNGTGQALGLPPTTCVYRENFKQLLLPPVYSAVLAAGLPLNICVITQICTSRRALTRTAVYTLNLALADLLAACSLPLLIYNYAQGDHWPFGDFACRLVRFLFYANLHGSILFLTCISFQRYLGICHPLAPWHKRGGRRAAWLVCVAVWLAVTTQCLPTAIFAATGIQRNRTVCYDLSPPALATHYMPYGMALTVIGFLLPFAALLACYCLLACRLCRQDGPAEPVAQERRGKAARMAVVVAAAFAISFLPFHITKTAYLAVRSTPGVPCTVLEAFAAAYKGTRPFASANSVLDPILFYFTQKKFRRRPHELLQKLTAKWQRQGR
T1 sequence (Q15077 whole entry): as the sequence (Q15077 whole entry Y75A) above, with A75Y counted along it
T2 sequence (P16473 21-764): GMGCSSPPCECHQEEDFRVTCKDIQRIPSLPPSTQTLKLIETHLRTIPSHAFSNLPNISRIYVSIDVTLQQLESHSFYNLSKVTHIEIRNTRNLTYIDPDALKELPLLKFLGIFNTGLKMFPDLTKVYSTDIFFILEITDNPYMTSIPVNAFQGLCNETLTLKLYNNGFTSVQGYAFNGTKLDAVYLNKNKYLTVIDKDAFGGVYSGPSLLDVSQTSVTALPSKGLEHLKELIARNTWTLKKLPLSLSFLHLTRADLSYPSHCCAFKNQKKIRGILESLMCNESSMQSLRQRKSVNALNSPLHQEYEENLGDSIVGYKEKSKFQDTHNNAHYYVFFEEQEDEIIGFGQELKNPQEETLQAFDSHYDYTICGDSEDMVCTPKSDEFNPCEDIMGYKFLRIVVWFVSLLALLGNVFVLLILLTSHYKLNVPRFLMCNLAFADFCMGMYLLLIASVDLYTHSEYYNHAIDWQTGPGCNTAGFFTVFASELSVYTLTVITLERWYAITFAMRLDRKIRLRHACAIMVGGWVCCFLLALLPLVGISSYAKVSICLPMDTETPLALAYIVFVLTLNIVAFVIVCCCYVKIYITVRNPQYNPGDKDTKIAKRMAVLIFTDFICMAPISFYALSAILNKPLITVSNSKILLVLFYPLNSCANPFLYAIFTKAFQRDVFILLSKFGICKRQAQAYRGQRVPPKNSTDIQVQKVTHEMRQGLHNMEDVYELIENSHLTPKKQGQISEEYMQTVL

Row | Compound | EC50 (H1819 cells; Fig. 1d, read-out: EC50, intracellular Ca2+ release) [nM] | EC50 (P2Y6 [1]; HEK293 stably transfected with P2RY6, Fig. 5, read-out: EC50, Ca2+ mobilization assay) [nM] | EC50 (P2Y6 [1]; [6]) | effect on cytosolic Ca2+ levels (P2Y6 [1]) | ERK1/2 phosphorylation (P2Y6 [2]) | effect on cell surface expression of the TSH receptor [3] | EC50 (P2Y6 [4]) [nM] | EC50 (P2Y6 [5]; HEK293 stably transfected with P2RY6, Fig. 5) [nM] | EC50 (P2Y6 [5]; agonist alone, HEK293 transfected with P2RY6, Fig. 6a) [nM] | EC50 (P2Y6 Y75A; Fig. 6e) [nM] | IP1 formation at mutant receptor (P2Y6 Y75A) | Maximum RFU for PGE2-G (H1819 cells; control (1% DMSO) 5,247 ± 2,016) | ratio of EC50 values UDP / PGE2-G (P2Y6 [1]; Ca2+ measurements in transfected HEK cells, Fig. 2b) | Emax values (P2Y6 [4]; most functional assays, Figs 3a–c and 6a) | ratio of EC50 values UDP / PGE2-G (P2Y6 [5]; IP1 accumulation, Fig. 6a)
1 | O=c1ccn([C@@H]2O[C@H](COP(=O)(O)OP(=O)(O)O)[C@@H](O)[C@H]2O)c(=O)[nH]1 [UDP] | 25.9 ± 2.8 | 57.1 ± 2.5 | 78.3 ± 6.7 nM | increased the cytosolic Ca^2+ levels | led to ERK1/2 phosphorylation; also recorded: induce ERK1/2 phosphorylation | no effect | ~50 | 77.3 ± 3.4 | 18.9 ± 2.3 | 15.4 ± 0.9 | efficacy remained unchanged |  |  |  | 
2 | Prostaglandin E2 glyceryl ester [PGE2-G] |  |  | ~0.001 nM and 0.0012 nM | increased the cytosolic Ca^2+ levels | led to ERK1/2 phosphorylation; also recorded: induce ERK1/2 phosphorylation | no effect | ~0.001 |  |  |  | loss of PGE2-G-induced IP1 formation | 13,143 ± 2,157 RFU | ~ 65,000 | slightly lower compared to UDP | ~ 63,000
